Results on two compounds are retold here after article PMC12454493, “Insight on novel sulfamoylphenyl pyrazole derivatives as anticancer carbonic anhydrase inhibitors” (Molecular Diversity, 2024).

In assay [1] the test system is MCF-7 breast cancer cell line. Nature of the assay: In vitro cytotoxicity, MTT assay. The following applies: Homo sapiens.
Description: In vitro cytotoxic activity:
Firstly, cultures were delivered into sterile area then each vial was supplied with 3 mL of medium or balanced salt solution free from phenol red and serum. Cultures were subjected to incubation foe 2-4 g. After the incubation period, MTT solubilization solution was added to remove the produced formazan crystals. Spectrophotometric measurement of absorbance was carried out at 690 nm for the background which then subtracted from absorbance measured at 570 nm. Five different drug concentrations were used 100, 25, 6.3, 1.6 and 0.4 nM and measured in triplicate.
Cell cycle analysis and Apoptotic assay
was determined using Annexin V-FITC Apoptosis Detection Kit (Bio Vision) according to the manufacturer’s procedures. Briefly, cell lines were cultured and incubated with each of the tested compounds for 48 h. Then, the cells were collected by centrifugation and resuspended in 500 μl of 1X binding buffer. 5 μl of Annexin V-FITC was added and 5 μl of propidium iodide (PI 50 mg/ml, optional.). The cells were incubated at room temperature for
Em = 530 nm) using FITC signal detector and PI staining was analyzed by the phycoerythrin emission signal detector.
Apoptotic assay: cell lines were cultured and incubated with each of the tested compounds for 48 h.
Then, the cells were collected by centrifugation and resuspended in 500 μl of 1X binding buffer. 5 μl of Annexin V-FITC was added and 5 μl of propidium iodide (PI 50 mg/ml, optional.). the cells were incubated at room temperature for 5 min in the dark.
signal detector and PI staining was analyzed by the phycoerythrin emission signal detector.
The target in the next assay is hCA XII (Homo sapiens, UniProt O43570). The conditions noted are these: cited from earlier work.
A further assay has as its target hCA IX (Homo sapiens, UniProt Q16790). The following applies: cited from earlier work.

Each structure is given as a SMILES string. Where two headings read alike, the source gives them in different places.

hCA XII, sequence (O43570 25-354): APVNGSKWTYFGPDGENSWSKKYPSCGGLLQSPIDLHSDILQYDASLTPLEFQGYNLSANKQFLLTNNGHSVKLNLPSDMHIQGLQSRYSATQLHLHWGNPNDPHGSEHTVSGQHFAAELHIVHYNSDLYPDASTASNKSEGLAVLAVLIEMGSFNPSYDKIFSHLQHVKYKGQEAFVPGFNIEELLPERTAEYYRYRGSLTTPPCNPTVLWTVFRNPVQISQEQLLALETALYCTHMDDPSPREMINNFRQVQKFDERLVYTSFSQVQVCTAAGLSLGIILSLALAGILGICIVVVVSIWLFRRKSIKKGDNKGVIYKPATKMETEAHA

Regarding `COc1cccc2c1C(=O)c1c(O)c3c(c(O)c1C2=O)C[C@@](O)(C(=O)CO)C[C@@H]3O[C@H]1C[C@H](N)[C@H](O)[C@H](C)O1` [Doxorubicin, doxorubicin, reference compound], the IC50 stood at 11.6 ± 0.46 µM in assay [1] (MCF7, read-out: IC50 (µM) ± SD cytotoxic activity, MCF-7, MTT, normal conditions) and 2.72 ± 0.11 µM in assay [1] (MCF7, read-out: IC50 (µM) ± SD cytotoxic activity, MCF-7, MTT, under hypoxia).
Take `COc1ccc(C2CC(C3=CC=CCC3=S)=NN2c2ccc(S(N)(=O)=O)cc2)c(OC)c1OC` (stereo not shown) [IV]: the Ki on hCA XII is 9 nM; on hCA IX, 44 nM.

As a reminder, the IC50 is the concentration that gives 50% inhibition. What is called Ki is a measure of affinity in units of concentration, obtained from inhibition or displacement.
